Measured values published in US20160282364A1, “ASSAY FOR INSULIN-DEGRADING ENZYME (IDE) INHIBITORS” (PRESIDENT AND FELLOWS OF HARVARD COLLEGE, priority 2013, published 2016).
“Also recorded” adds a separate entry of the source.

Columns and labels:
[1] = Plasma stability (1 h incubation); assay type: in vitro ADME; details: after 1 h
[2] = Plasma protein binding assay; assay type: in vitro ADME
[3] = Plasma pharmacokinetics by isotope dilution mass spectrometry; assay type: in vivo, mouse; details: 80 mg/kg
Description: Purified macrocycle inhibitors were dissolved in DMSO-d6 ( 200 to 250 mg/mL stock solutions). […] The inhibitor concentration was calculated using the integral of the CH2Cl2 singlet (δ 5.76 ppm, 2H)^57, which appears in an uncluttered region of these spectra^51,58. For injectable formulations (10 mL/kg i.p. injection volume), the macrocycle inhibitor solution in DMSO-d6 (200-250 mg/mL, based on free-base molecular weight) was combined with 1:20 w/w Captisol® powder (CyDex)^59. The resulting slurry was supplemented with DMSO-d6 to make up to 5% of the final formulation volume, mixed thoroughly and dissolved with sterile saline solution (0.9% NaCl). Vehicle controls were identically formulated with 5% DMSO-d6 and equal amount of Captisol®. The formulated solutions of inhibitor were clear with no visible particles, and were stored overnight at 4° C. prior to injection. Stable isotope dilution LC-MS, pharmacokinetics, and tissue distribution measurements. […] Tissue samples ( 100 mg) fromb 6K-treated mice and vehicle controls were weighed and disrupted in Dounce homogenizers with PBS buffer (0.5 mL/100 mg sample), supplemented with 5 μM heavy-6bK and protease inhibitor cocktail (1 tablet/50 mL PBS, Roche diagnostics). The lysate was incubated on ice for 30 min, sonicated 5 min and centrifuged at 13,000 g for 5 min. The bulk of supernatant proteins were precipitated by denaturation at 95° C. for 5 min, removed by centrifugation.

Wild-type mice = assay: Pyruvate tolerance test (PTT); assay type: in vivo, mouse; details: vs controls
Description: Blood collection and plasma hormone measurements. Blood was collected in EDTA-coated tubes (BD Microtainer®) from trunk bleeding (˜500 μL) after CO2-euthanasia for all hormone assays. The plasma was immediately separated from red blood cells by centrifugation 10 min at 1800 g, aliquoted, frozen over dry ice and stored at −80° C. […] Values are reported as mean±S.E.M. Statistics were performed using a two-tail Student's t-test, and significance levels shown in the figures are *p<0.05 versus vehicle control group or **p<0.01 versus vehicle control group.
RT-PCR analysis of liver gluconeogenesis markers phosphoenolpyruvate carboxykinase (PEPCK) and glucose-6-phosphatase (G6Pase). Total RNA was isolated from liver samples (˜100 mg) using TRIzol® reagent (Invitrogen, 1 mL/100 mg sample), followed by spin-column purification (RNeasy® kit, Qiagen) and on-column DNAse treatment (Qiagen) according to the manufacturer's instructions. RNA concentrations were determined by UV spectrophotometry (NanoDrop). One microgram of total RNA was used for reverse transcription with oligo(dT) primers (SuperScript® III First-Strand Synthesis SuperMix, Life Technologies) according to the manufacturer's instructions. Quantitative PCR reactions included 1 μL of cDNA diluted 1:100, 0.4 μM primers, 2× SYBR Green PCR Master Mix (Invitrogen) in 25 μL total volume, and were read out by a CFX96TM Real-Time PCR Detection System (BioRad). Transcript levels were determined using two known primer pairs^18,19 for each gene of interest (Table 6), which were normalized against tubulin and beta-actin transcripts (ΔΔCT method), and expressed relative to the lowest sample. Duplicate control assays without reverse transcriptase treatment were run for each RNA preparation and primer set used. Statistics were performed using a two-tail Student's t-test, and significance levels shown in the figures are *p<0.05 versus vehicle control group or **p<0.01 versus vehicle control group.

C57BL/6J lean mice = assay: CGRP-induced blood glucose excursions; assay type: in vivo, mouse; details: 80 mg/kg 30 min before CGRP
Description: Supraphysiological doses of CGRP induce blood glucose fluctuations via amylin receptors. […] Blood glucose was monitored at various points throughout the experiment, beginning at 45 minutes before and ending at 110 minutes after CGRP administration. The data was plotted (left panel) and the area under the curve for the 6bK-administered mice and the control mice was integrated.

Structure (SMILES): NCCCC[C@@H]1NC(=O)/C=C/C(=O)N[C@H](C(N)=O)CCCCNC(=O)[C@@H](Cc2ccc(C(=O)c3ccccc3)cc2)NC(=O)[C@H](CC2CCCCC2)NC1=O [Compound 6bK]
- remaining after incubation with plasma [1]: 74%
- unbound in plasma protein binding assay [2]: ~6%
- plasma concentration relative to IC50 for mouse IDE ([3]; 30 min post-injection): ~1000 fold
- time at which plasma levels were detectable post-injection ([3]; mouse, in vivo, ip): 5 min
- time plasma levels maintained at a detectable level ([3]; mouse, in vivo, ip): at least 4 h
- plasma glucagon (Wild-type mice; 60 min post-PTT, pyruvate 2.0 g/kg i.p.): significantly elevated
- expression of liver gluconeogenic markers (Wild-type mice; 60 min post-PTT): increased; also recorded: elevated
- plasma insulin levels (Wild-type mice; 60 min post-PTT): similar
- blood glucose during the PTT (Wild-type mice; pyruvate 2.0 g/kg i.p.): significantly lower
- CGRP-induced blood glucose excursions (C57BL/6J lean mice): augments
